ChEMBL document CHEMBL1201862, “PubChem BioAssay data set” (2004)
Activity calls are given as the source filed them.

Columns and labels:
[1] = test system: HEK293; test: HEK cell cytotoxicity by LDH release, dose response, cytotoxicity control for IDE activator project, fluorescence, HEK cells (AID 588440); assay type: functional, cell-based; settings: Homo sapiens;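 also: cytotoxicity by LDH release measuring loss of membrane integrity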
[2] = biological target: T1, Insulin-degrading enzyme (Homo sapiens, UniProt P14735); test: activators of endogenous IDE in HEK cells, dose response, cell-based, fluorescence polarization (AID 588439); assay type: functional
T1 sequence (P14735 whole entry): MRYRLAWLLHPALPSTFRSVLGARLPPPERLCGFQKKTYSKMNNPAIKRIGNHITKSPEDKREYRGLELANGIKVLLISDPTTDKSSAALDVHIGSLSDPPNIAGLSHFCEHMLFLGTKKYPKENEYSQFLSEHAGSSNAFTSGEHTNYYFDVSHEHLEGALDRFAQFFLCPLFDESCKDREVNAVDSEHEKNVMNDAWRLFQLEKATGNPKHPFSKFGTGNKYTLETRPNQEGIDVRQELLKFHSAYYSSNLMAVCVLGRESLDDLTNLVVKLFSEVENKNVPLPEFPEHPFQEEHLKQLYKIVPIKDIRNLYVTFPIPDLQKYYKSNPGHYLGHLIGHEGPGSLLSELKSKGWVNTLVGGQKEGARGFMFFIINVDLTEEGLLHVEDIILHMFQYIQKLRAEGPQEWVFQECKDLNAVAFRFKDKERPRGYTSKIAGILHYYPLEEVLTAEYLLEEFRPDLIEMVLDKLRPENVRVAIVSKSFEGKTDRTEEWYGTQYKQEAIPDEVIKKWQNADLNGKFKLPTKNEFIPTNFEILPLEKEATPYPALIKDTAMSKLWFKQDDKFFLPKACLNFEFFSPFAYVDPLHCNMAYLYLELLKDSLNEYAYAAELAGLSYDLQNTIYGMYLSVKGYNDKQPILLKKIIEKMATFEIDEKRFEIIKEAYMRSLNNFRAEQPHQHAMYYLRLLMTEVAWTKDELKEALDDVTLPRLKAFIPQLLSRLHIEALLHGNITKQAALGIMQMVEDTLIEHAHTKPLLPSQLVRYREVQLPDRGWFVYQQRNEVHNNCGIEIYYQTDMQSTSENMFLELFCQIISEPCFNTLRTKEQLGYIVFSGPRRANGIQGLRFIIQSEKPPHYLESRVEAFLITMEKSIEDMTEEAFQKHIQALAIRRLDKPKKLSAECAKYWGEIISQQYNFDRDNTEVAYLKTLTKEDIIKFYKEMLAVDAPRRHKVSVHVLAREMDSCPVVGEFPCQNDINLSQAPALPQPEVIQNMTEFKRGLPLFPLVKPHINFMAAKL

[3] = biological target: T1, Insulin-degrading enzyme; test: activators of recombinant IDE enzyme, dose response, counter-screen for IDE activator project, biochemical, fluorescence polarization (AID 588681)
[4] = biological target: T2, Multidrug resistance protein CDR2 (Candida albicans (strain SC5314 / ATCC MYA-2876) (Yeast), UniProt P78595); test: CaCDR2 efflux pump inhibitors in yeast, dose response, S. cerevisiae AD1-8u, singleplex, Cherry Pick1 hits (AID 588604); assay type: functional
T2 sequence (P78595 whole entry): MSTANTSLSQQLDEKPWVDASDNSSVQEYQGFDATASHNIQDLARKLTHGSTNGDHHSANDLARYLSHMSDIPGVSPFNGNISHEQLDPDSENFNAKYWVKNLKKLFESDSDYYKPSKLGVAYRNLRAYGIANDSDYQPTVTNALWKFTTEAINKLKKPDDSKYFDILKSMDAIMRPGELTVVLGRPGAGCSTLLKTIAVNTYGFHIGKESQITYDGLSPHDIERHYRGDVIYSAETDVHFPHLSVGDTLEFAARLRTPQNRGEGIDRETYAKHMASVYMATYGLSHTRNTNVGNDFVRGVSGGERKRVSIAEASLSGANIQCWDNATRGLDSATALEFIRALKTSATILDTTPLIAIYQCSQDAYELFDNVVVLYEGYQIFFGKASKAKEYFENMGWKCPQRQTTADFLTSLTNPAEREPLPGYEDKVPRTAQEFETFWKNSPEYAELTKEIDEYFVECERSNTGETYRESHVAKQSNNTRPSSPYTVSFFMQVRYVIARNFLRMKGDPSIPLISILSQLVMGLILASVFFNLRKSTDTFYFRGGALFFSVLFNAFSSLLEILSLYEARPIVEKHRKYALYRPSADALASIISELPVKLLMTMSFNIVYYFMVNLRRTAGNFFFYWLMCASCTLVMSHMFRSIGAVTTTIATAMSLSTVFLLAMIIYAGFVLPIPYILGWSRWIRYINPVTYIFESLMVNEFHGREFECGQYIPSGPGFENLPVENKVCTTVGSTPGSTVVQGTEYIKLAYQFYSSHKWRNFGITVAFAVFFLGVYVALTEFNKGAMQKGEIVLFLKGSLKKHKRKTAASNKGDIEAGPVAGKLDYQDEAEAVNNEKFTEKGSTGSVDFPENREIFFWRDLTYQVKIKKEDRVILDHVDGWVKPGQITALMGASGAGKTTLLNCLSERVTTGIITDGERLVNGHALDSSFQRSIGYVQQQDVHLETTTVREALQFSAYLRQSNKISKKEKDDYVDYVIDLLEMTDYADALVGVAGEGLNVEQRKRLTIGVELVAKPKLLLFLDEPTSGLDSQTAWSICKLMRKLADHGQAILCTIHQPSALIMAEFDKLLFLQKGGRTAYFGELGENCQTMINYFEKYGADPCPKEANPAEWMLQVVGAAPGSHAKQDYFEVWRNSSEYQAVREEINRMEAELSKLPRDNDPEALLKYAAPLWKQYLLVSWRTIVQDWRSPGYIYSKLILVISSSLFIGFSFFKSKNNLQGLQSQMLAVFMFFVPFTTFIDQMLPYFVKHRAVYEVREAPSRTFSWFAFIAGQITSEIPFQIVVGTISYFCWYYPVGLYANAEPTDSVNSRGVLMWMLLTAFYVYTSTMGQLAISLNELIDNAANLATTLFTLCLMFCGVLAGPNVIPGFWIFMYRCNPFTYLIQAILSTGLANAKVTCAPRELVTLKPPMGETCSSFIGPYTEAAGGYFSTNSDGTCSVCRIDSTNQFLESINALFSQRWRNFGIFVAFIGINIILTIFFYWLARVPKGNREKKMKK

[5] = biological target: Melanocortin receptor 4 (Homo sapiens, UniProt P32245); assay type: functional, cell-based;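 also: Cell-based assay with luminescence read-out, confirmatory dose-response testing for agonist activity of biased ligands at MC4R; human U2OS cells with tagged receptor and beta-arrestin; potency of agonists that increase receptor coupling to beta-arrestin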
[6] = test system: HEK293; test: optical interference in Abeta FP readout, dose response, artefact control for IDE activator project, biochemical, fluorescence polarization (AID 588442); assay type: functional, cell-based; settings: Homo sapiens
[7] = biological target: T2, Multidrug resistance protein CDR2; test: CaCDR2 efflux pump inhibitors in yeast, dose response, S. cerevisiae AD1-8u, singleplex, Cherry Pick2 set (AID 623994); assay type: functional; settings: read-out: EC50_MICROM
[8] = biological target: Cyclin-dependent kinase 7 (Homo sapiens, UniProt P50613); assay type: functional;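 also: value comes from a kinome-wide kinase profiling panel in which CDK7 is one member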
[9] = biological target: Vascular endothelial growth factor receptor 2 (Homo sapiens, UniProt P35968); assay type: functional
[10] = biological target: Activated CDC42 kinase 1 (Homo sapiens, UniProt Q07912); test: Navigating the Kinome. Panel member name: ACK1; assay type: functional
[11] = biological target: Platelet-derived growth factor receptor alpha (Homo sapiens, UniProt P16234); test: Navigating the Kinome. Panel member name: PDGFRA; assay type: functional
[12] = biological target: Mitogen-activated protein kinase 9 (Homo sapiens, UniProt P45984); assay type: functional;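 also: value from a kinome panel profiling assay, MAPK9 panel entry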
[13] = biological target: cAMP-dependent protein kinase catalytic subunit PRKX (Homo sapiens, UniProt P51817); assay type: functional
[14] = biological target: ALK tyrosine kinase receptor (Homo sapiens, UniProt Q9UM73); assay type: functional;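 also: ALK tested as one member of a kinase panel screen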
[15] = biological target: Activin receptor type-1 (Homo sapiens, UniProt Q04771); test: Navigating the Kinome. Panel member name: ACVR1; assay type: functional
[16] = biological target: Serine/threonine-protein kinase TBK1 (Homo sapiens, UniProt Q9UHD2); test: Navigating the Kinome. Panel member name: TBK1; assay type: functional
[17] = biological target: Mitogen-activated protein kinase kinase kinase kinase 2 (Homo sapiens, UniProt Q12851); assay type: functional;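 also: measured as one member of a kinome-wide kinase panel, with MAP4K2 as the panel entry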
[18] = biological target: Leukocyte tyrosine kinase receptor (Homo sapiens, UniProt P29376); test: Navigating the Kinome. Panel member name: LTK; assay type: functional
Sequence of Leukocyte tyrosine kinase receptor (P29376 whole entry): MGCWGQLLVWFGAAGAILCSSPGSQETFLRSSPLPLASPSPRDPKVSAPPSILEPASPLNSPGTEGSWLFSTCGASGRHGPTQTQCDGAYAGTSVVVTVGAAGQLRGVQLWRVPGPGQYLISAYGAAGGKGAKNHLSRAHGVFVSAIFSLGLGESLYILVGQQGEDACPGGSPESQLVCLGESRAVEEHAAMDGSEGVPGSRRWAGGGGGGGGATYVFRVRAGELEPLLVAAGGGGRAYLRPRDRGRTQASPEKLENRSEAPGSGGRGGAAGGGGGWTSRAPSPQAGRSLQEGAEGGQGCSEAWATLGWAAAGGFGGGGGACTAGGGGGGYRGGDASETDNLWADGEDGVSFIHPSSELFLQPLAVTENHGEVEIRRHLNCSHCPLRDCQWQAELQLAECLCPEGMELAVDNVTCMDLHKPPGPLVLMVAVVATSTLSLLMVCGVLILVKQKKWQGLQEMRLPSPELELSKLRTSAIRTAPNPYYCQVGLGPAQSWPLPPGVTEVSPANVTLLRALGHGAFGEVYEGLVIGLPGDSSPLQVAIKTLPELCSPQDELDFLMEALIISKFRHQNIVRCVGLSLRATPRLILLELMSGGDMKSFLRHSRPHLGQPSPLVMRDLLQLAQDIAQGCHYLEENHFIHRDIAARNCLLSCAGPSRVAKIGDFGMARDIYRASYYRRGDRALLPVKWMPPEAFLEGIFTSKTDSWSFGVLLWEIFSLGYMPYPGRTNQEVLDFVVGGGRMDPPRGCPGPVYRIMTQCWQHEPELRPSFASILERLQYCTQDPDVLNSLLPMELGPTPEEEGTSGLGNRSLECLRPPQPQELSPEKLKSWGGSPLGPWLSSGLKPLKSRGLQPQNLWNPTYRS

[19] = biological target: Insulin-like growth factor 1 receptor (Homo sapiens, UniProt P08069); test: Navigating the Kinome. Panel member name: IGF1R; assay type: functional
[20] = biological target: Serine/threonine-protein kinase PAK 4 (Homo sapiens, UniProt O96013); assay type: functional;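 also: value obtained within a kinome profiling panel in which PAK4 was one of the panel members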
[21] = biological target: Macrophage colony-stimulating factor 1 receptor (Homo sapiens, UniProt P07333); assay type: functional;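 also: value comes from the Navigating the Kinome screening panel, CSF1R member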
[22] = biological target: Vascular endothelial growth factor receptor 1 (Homo sapiens, UniProt P17948); assay type: functional;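 also: measured within a kinome-wide profiling panel, FLT1 as the panel member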
[23] = biological target: Dual specificity tyrosine-phosphorylation-regulated kinase 1B (Homo sapiens, UniProt Q9Y463); test: Navigating the Kinome. Panel member name: DYRK1B; assay type: functional
[24] = biological target: Serine/threonine-protein kinase D3 (Homo sapiens, UniProt O94806); assay type: functional;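 also: determined within a kinase panel screen, with PRKCN as the panel member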
[25] = biological target: Serine/threonine-protein kinase Chk1 (Homo sapiens, UniProt O14757); assay type: functional;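 also: measured as one member of a kinome-wide kinase profiling panel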
[26] = biological target: Glycogen synthase kinase-3 alpha (Homo sapiens, UniProt P49840); assay type: functional;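 also: GSK3A result taken from a broad kinome-wide kinase panel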
[27] = biological target: Tyrosine-protein kinase receptor TYRO3 (Homo sapiens, UniProt Q06418); assay type: functional;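 also: TYRO3 value obtained as one member of a kinome-wide profiling panel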
[28] = biological target: Aurora kinase B (Homo sapiens, UniProt Q96GD4); assay type: functional
Sequence of Aurora kinase B (Q96GD4 whole entry): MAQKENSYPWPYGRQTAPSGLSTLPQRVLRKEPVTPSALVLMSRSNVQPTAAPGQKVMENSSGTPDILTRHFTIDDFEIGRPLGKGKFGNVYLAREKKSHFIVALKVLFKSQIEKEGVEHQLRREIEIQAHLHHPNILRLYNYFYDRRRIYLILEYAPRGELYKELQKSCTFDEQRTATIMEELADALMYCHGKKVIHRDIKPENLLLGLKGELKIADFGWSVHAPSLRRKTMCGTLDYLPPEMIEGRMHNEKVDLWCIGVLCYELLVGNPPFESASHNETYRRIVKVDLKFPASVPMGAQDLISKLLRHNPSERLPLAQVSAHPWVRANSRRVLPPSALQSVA

[29] = biological target: Dual specificity protein kinase CLK2 (Homo sapiens, UniProt P49760); assay type: functional
[30] = biological target: Serine/threonine-protein kinase pim-1 (Homo sapiens, UniProt P11309); assay type: functional
Sequence of Serine/threonine-protein kinase pim-1 (P11309 whole entry): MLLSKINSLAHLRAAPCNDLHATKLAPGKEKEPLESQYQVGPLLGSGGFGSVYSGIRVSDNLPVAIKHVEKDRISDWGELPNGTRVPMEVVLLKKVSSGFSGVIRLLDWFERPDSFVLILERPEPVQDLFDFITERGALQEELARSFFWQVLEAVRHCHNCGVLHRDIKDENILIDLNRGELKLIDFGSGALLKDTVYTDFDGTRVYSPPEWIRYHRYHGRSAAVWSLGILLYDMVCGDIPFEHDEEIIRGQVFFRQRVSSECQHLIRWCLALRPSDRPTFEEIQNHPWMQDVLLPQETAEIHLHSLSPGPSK

[31] = biological target: Inhibitor of nuclear factor kappa-B kinase subunit epsilon (Homo sapiens, UniProt Q14164); test: Navigating the Kinome. Panel member name: IKBKE; assay type: functional
[32] = biological target: Hepatocyte growth factor receptor (Homo sapiens, UniProt P08581); assay type: functional;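 also: kinase panel profiling across the kinome, with MET as the panel member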
[33] = biological target: Calcium/calmodulin-dependent protein kinase type II subunit alpha (Homo sapiens, UniProt Q9UQM7); test: Navigating the Kinome. Panel member name: CAMK2A; assay type: functional
[34] = biological target: Receptor-type tyrosine-protein kinase FLT3 (Homo sapiens, UniProt P36888); assay type: functional;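 also: FLT3 was tested as one member of a kinome-wide kinase panel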
[35] = biological target: Fibroblast growth factor receptor 1 (Homo sapiens, UniProt P11362); assay type: functional
[36] = biological target: Death-associated protein kinase 3 (Homo sapiens, UniProt O43293); assay type: functional;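 also: measured as one member of a kinome-wide profiling panel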
[37] = biological target: Dual specificity mitogen-activated protein kinase kinase 2 (Homo sapiens, UniProt P36507); test: Navigating the Kinome. Panel member name: MAP2K2; assay type: functional
[38] = biological target: Serine/threonine-protein kinase Nek2 (Homo sapiens, UniProt P51955); assay type: functional
[39] = biological target: Protein kinase C theta type (Homo sapiens, UniProt Q04759); test: Navigating the Kinome. Panel member name: PRKCQ; assay type: functional
[40] = biological target: Dual specificity mitogen-activated protein kinase kinase 1 (Homo sapiens, UniProt Q02750); test: Navigating the Kinome. Panel member name: MAP2K1; assay type: functional
[41] = biological target: Leucine-rich repeat serine/threonine-protein kinase 2 (Homo sapiens, UniProt Q5S007); assay type: functional;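 also: value from a broad kinome-wide panel profiling study in which LRRK2 was one of the kinases tested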
[42] = biological target: High affinity nerve growth factor receptor (Homo sapiens, UniProt P04629); assay type: functional;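 also: NTRK1 tested as one member of a kinome-wide profiling panel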
[43] = biological target: 5'-AMP-activated protein kinase catalytic subunit alpha-1 (Homo sapiens, UniProt Q13131); assay type: functional
[44] = biological target: BDNF/NT-3 growth factors receptor (Homo sapiens, UniProt Q16620); assay type: functional;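 also: NTRK2 measured as one member of a broad kinome-wide kinase profiling panel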
[45] = biological target: Cyclin-dependent kinase 5 (Homo sapiens, UniProt Q00535); assay type: functional;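 also: CDK5 measured as one member of a kinase profiling panel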
[46] = biological target: G protein-coupled receptor kinase 5 (Homo sapiens, UniProt P34947); test: Navigating the Kinome. Panel member name: GPRK5; assay type: functional
Sequence of G protein-coupled receptor kinase 5 (P34947 whole entry): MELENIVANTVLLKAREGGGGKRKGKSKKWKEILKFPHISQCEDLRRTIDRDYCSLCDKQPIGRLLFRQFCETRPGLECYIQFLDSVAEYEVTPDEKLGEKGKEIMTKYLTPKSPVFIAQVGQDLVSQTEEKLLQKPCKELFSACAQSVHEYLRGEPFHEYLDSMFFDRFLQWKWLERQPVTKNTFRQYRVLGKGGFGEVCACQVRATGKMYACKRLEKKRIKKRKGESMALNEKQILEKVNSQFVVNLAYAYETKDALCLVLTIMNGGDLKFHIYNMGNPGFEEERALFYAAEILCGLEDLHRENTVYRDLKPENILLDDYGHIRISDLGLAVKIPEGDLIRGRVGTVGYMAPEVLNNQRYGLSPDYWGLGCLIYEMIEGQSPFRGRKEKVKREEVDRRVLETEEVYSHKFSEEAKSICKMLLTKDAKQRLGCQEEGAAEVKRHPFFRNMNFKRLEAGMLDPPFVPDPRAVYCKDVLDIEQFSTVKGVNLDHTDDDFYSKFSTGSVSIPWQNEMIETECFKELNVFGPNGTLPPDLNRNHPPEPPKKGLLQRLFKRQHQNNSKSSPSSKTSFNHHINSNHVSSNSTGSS

[47] = biological target: Glycogen synthase kinase-3 beta (Homo sapiens, UniProt P49841); assay type: functional;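 also: value comes from a broad kinome profiling panel, with GSK3B as the panel member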
[48] = biological target: Tyrosine-protein kinase JAK2 (Homo sapiens, UniProt O60674); assay type: functional;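 also: JAK2 tested as one member of a kinase panel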
[49] = biological target: Dual specificity protein kinase CLK4 (Homo sapiens, UniProt Q9HAZ1); assay type: functional
[50] = biological target: Tyrosine-protein kinase Lck (Homo sapiens, UniProt P06239); assay type: functional;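 also: lck was assayed as one member of a kinase panel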
[51] = biological target: Cyclin-dependent kinase 8 (Homo sapiens, UniProt P49336); test: Navigating the Kinome. Panel member name: CDK8; assay type: functional
[52] = biological target: LIM domain kinase 1 (Homo sapiens, UniProt P53667); test: Navigating the Kinome. Panel member name: LIMK1; assay type: functional
[53] = biological target: Tyrosine-protein kinase Fyn (Homo sapiens, UniProt P06241); assay type: functional
[54] = biological target: Tyrosine-protein kinase ABL1 (Homo sapiens, UniProt P00519); assay type: functional
[55] = biological target: Rho-associated protein kinase 1 (Homo sapiens, UniProt Q13464); assay type: functional;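 also: measured within a broad kinome-wide panel profiling many kinases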
Sequence of Rho-associated protein kinase 1 (Q13464 whole entry): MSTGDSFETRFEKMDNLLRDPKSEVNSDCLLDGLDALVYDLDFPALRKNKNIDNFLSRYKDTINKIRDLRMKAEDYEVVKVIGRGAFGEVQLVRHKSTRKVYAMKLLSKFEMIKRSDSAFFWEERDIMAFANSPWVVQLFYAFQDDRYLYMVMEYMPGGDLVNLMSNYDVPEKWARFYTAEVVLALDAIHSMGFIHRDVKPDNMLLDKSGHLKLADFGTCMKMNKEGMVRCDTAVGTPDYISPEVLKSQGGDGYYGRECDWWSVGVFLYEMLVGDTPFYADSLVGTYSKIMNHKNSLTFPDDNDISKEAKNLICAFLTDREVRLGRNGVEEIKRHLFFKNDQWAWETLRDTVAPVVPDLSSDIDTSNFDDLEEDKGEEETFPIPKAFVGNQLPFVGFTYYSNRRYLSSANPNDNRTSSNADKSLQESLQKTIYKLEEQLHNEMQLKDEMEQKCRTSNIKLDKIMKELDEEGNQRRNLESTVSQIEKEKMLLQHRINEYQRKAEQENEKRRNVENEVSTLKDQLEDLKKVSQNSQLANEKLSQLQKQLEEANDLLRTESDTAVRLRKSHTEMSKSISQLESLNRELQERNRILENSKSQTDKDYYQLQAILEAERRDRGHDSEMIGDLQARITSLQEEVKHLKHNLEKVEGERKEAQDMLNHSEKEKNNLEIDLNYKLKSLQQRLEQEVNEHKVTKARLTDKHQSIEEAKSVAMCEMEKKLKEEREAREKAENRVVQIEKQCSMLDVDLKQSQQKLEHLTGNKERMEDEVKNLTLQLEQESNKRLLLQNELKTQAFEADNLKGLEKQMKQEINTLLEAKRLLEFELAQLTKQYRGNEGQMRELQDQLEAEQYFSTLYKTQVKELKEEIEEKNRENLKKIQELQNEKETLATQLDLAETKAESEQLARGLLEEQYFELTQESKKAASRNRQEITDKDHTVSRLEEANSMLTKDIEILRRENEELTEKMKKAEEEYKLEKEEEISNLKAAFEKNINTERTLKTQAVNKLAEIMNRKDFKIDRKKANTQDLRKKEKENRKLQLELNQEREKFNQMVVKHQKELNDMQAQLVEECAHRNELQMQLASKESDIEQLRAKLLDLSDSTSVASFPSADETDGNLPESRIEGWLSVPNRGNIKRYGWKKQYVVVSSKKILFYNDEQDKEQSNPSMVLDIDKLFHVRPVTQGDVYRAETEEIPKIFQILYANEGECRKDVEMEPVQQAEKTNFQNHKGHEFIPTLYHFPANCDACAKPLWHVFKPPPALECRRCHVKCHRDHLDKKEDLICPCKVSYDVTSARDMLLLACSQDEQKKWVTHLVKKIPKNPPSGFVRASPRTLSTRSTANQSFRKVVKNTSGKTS

[56] = biological target: Macrophage-stimulating protein receptor (Homo sapiens, UniProt Q04912); test: Navigating the Kinome. Panel member name: MST1R; assay type: functional
[57] = biological target: Tyrosine-protein kinase JAK3 (Homo sapiens, UniProt P52333); assay type: functional
[58] = biological target: Serine/threonine-protein kinase TAO1 (Homo sapiens, UniProt Q7L7X3); assay type: functional
[59] = biological target: Mitogen-activated protein kinase 8 (Homo sapiens, UniProt P45983); assay type: functional;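 also: value comes from one member of a kinome-wide kinase profiling panel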
[60] = biological target: Mitogen-activated protein kinase 14 (Homo sapiens, UniProt Q16539); assay type: functional;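 also: part of a kinome-wide panel, MAPK14 entry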

Structure (SMILES): Cc1ccc2sc(N(CCCN(C)C)C(=O)c3ccc(Br)s3)nc2c1C
- IC50 [1]: 35.3 µM (inactive)
- EC50 [2]: 20.1 µM (inactive)
- EC50 [3]: > 54.7 µM (inactive)
- EC50 [4]: 10.3 µM (active)
- EC50 [5]: > 89.2 µM (inactive)
- EC50 [6]: > 54.7 µM (inactive)
- EC50 [7]: 50.5 µM (active)

Structure (SMILES): Cc1cc(OCc2ccc(Cl)c(Cl)c2)ccc1CN1CC(C(=O)O)C1
- Ki [8]: > 3.98 µM (inactive)
- Ki [9]: > 2.51 µM (inactive)
- Ki [10]: > 3.98 µM (inactive)
- Ki [11]: 0.2 µM (active)
- Ki [12]: > 3.98 µM (inactive)
- Ki [13]: > 3.16 µM (inactive)
- Ki [14]: > 6.31 µM (inactive)
- Ki [15]: > 3.98 µM (inactive)
- Ki [16]: > 3.16 µM (inactive)
- Ki [17]: > 2.51 µM (inactive)
- Ki [18]: > 2.51 µM (inactive)
- Ki [19]: > 2.51 µM (inactive)
- Ki [20]: > 5.01 µM (inactive)
- Ki [21]: > 2.51 µM (inactive)
- Ki [22]: > 3.98 µM (inactive)
- Ki [23]: > 2.51 µM (inactive)
- Ki [24]: > 3.98 µM (inactive)
- Ki [25]: > 3.16 µM (inactive)
- Ki [26]: > 3.98 µM (inactive)
- Ki [27]: > 3.16 µM (inactive)
- Ki [28]: > 3.98 µM (inactive)
- Ki [29]: > 3.98 µM (inactive)
- Ki [30]: > 6.31 µM (inactive)
- Ki [31]: > 3.16 µM (inactive)
- Ki [32]: > 2.51 µM (inactive)
- Ki [33]: > 3.98 µM (inactive)
- Ki [34]: > 3.16 µM (inactive)
- Ki [35]: > 3.98 µM (inactive)
- Ki [36]: > 5.01 µM (inactive)
- Ki [37]: > 3.98 µM (inactive)
- Ki [38]: > 3.16 µM (inactive)
- Ki [39]: > 2.51 µM (inactive)
- Ki [40]: > 3.16 µM (inactive)
- Ki [41]: > 2.51 µM (inactive)
- Ki [42]: > 3.16 µM (inactive)
- Ki [43]: > 3.16 µM (inactive)
- Ki [44]: > 3.98 µM (inactive)
- Ki [45]: > 3.16 µM (inactive)
- Ki [46]: > 3.98 µM (inactive)
- Ki [47]: > 3.98 µM (inactive)
- Ki [48]: > 2.51 µM (inactive)
- Ki [49]: > 2.51 µM (inactive)
- Ki [50]: > 6.31 µM (inactive)
- Ki [51]: > 3.98 µM (inactive)
- Ki [52]: > 3.16 µM (inactive)
- Ki [53]: > 6.31 µM (inactive)
- Ki [54]: > 2.51 µM (inactive)
- Ki [55]: 3.16 µM (active)
- Ki [56]: > 3.98 µM (inactive)
- Ki [57]: > 5.01 µM (inactive)
- Ki [58]: > 6.31 µM (inactive)
- Ki [59]: > 5.01 µM (inactive)
- Ki [60]: > 3.98 µM (inactive)
